Data set [1] is described as follows: Study 4: in-life observations (mortality, clinical signs, body weight). Particulars: both treatment groups, 12 mg/kg IV on days 1, 7, 13, 19, nude mice.
Method: (§1) DU145 cells (5×106) at their exponential growth phase were inoculated subcutaneously on the dorsal right flank in athymic female mice. […] Animals in the vehicle control group received 5 w/v % dextrose solution. Growth of prostate xenografts (tumor volume) and whole body weights were recorded twice weekly (on days 1, 3, 5, 8, 10, 15, 17, 19) during treatment period. Animals were also monitored for clinical signs and mortality everyday throughout the study. On the day of sacrifice (day 19), blood and tumors were collected from set of animals (4 animals in each time point) at stipulated time points (1, 2, 3, and 4 h post-dose). At the end of blood collection, animals were humanely euthanized by cervical dislocation and tumor in toto was harvested from all the animals, transferred to pre-labeled microcentrifuge tubes before flash freezing in liquid nitrogen.
The conditions of data set [2]: mouse, in vivo, iv, 12 mg/kg.
Method: as §1

One compound from US20170119726A1, “Stabilized Cabazitaxel Formulations” (Cipla (UK) Limited, priority 2015, published 2017) can be followed below.

Regarding `CO[C@H]1C(=O)[C@]2(C)[C@@H](OC)C[C@H]3OC[C@@]3(OC(C)=O)[C@H]2[C@H](OC(=O)c2ccccc2)[C@]2(O)C[C@H](OC(=O)[C@H](O)[C@@H](NC(=O)OC(C)(C)C)c3ccccc3)C(C)=C1C2(C)C` [Cabazitaxel, (2α,5β,7β,10β, 13α)-4-acetoxy-13-({(2R,3S)-3[(tertbutoxycarbonyl)amino]-2-hydroxy-3-phenylpropanoyl}-oxy)-1-hydroxy-7,10-dimethoxy-9-oxo-5,20-epoxytax-11-en-2-yl benzoate], in data set [1], the mortality result is reported as “no mortality was observed”. Further, the tolerability result in data set [2] is recorded as “well tolerated”.
